Experiment [1] has as its target T1, pUL97–cyclin H interaction (LgBiT::UL97(231–280)-Flag + SmBiT::CycH-HA) (UniProt P16788+P51946).
T1 construct: open reading frames coding for HCMV pUL97 (amino acids 231–280); expressed in transfected cells; host or cells: 293T
T1 sequence (P16788 231-280 limits assumed): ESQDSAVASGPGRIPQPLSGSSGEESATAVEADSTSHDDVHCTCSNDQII
T1 sequence (P51946 1-323): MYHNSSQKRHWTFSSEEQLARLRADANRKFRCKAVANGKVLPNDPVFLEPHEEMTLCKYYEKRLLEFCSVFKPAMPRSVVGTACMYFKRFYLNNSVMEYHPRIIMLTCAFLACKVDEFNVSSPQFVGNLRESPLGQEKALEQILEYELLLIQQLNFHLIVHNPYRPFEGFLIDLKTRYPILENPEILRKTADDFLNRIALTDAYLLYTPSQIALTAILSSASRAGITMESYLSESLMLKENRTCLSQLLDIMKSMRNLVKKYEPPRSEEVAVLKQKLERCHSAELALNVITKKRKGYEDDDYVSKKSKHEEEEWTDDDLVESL
Kind of experiment: NanoBiT specificity control, pUL97–cyclin H. It counts as cell-based, HCMV. Conditions: ibrutinib 3.75–30 µM.

Experiment [2] concerns the target T2, pUL50–pUL53 interaction (LgBiT::UL53(1–87)-Flag + SmBiT::UL50-HA) (Human cytomegalovirus, UniProt P16791).
T2 construct: expressed in transfected cells; host or cells: 293T
Type of experiment: cell-based. Conditions: 293T cells, 5×, 1× or 0.2× anti-HCMV EC50 levels, truncated LgBiT::UL53(1–87)-Flag.

Another experiment relates to HCMV AD169-GFP. Kind of experiment: microbe, parasite or virus in culture. Conditions: Human betaherpesvirus 5, AD169, 168 h, clinically relevant warheads, 0.1 µM to 50 µM, AD169-GFP-infected HFFs, 7 d p.i. It counts as cell-based, human cytomegalovirus (HCMV). On the procedure: Cytotoxicity of the analyzed compounds was determined by the Neutral Red dye uptake assay. A total of 1.35 × 10^5 HFFs per well were seeded in 96-well plates 1 d prior to analysis, cultivated overnight until cells were confluent and then incubated with compounds for 7 days. The assay was performed as described previously using 40 μg/mL Neutral Red (Sigma Aldrich). The quantity of dye incorporation was determined using the Victor X4 microplate reader (PerkinElmer, Waltham, MA, USA) by fluorescence measurement at 560/630 nm for excitation/emission, respectively. To assess antiviral activity of compounds, HFFs seeded in 96-well plates (1.35 × 10^5 HFFs per well) were infected with HCMV AD169-GFP or TB40-IE2-YFP to reach 25–50% infected cells at 7 days post-infection (d p.i.). After incubation with the infectious inoculum for 1.5 h at 37 °C, compounds were added in serial dilutions. At 7 d p.i., cells were fixed for 10 min at room temperature using 10% formalin. Finally, cells were washed once with PBS followed by automated fluorescence quantitation.
Seeking for a novel group of potential antiviral agents, small molecules with covalent protein-binding activity were investigated. These small molecules, originally developed as kinase inhibitors, carry a so-called warhead moiety as an important functional group, such as the prototype afatinib (Figure 1A, red circle). In this study, a series of newly generated warhead compounds (most of which are the property of B.K./Lead Discovery Center, Dortmund, Germany) were used for an evaluation of putative antiviral and core NEC-inhibitory properties. In a first step, the antiviral activity of warheads was analyzed against HCMV TB40-IE2-YFP (Figure 1B) and AD169-GFP (Figure 1C). To this end, HFFs were infected with either of the two viral strains before the GFP or YFP reporter signals were measured at 7 d p.i. (in parallel, putative compound cytotoxicity was determined by Neutral Red assay). The HCMVs AD169-GFP and TB40-IE2-YFP, based on BAC-derived recombinants of the laboratory strains AD169 and TB40, respectively, were both propagated on HFFs, and the produced stocks were then used as two reporter viruses for the assessement of antiviral drug activity. While strain AD169 is mainly restricted in its tropism to fibroblasts, TB40 tropism can be extended to fibroblasts and epithelial and endothelial cells. Here, the use of two strains was intended to illustrate the assumption that antiviral activity of these warhead compounds may be directed to conserved viral target proteins, thus pointing out a minor impact of strains.
(A) Chemical structure of a clinically approved prototype of covalently binding warhead inhibitors, […], afatinib/Gilotrif®. The red circle identifies a functionally active α-, β-unsaturated carbonyl group. (B) At 7 d p.i., compounds were analyzed for their cytotoxicity (orange) and antiviral activity (blue) during HCMV infection, using TB40-IE2-YFP as a reporter virus. Cell viability was assessed through Neutral Red staining of uninfected cells. Measurements were performed in quadruplicate (YFP fluorometry) or triplicate (Neutral Red assay), and standard deviations of mean values are given; EC50, CC50 and SI values are indicated accordingly. (C) In a parallel series of analyses, HCMV AD169-GFP was used as another reporter virus representing a second viral strain. […] HCMV AD169-GFP-infected HFFs were treated with 0.1 µM to 50 µM of the compounds (in parallel Neutral Red assay, 0.1 µM to 100 µM), before the signal assessments were performed at 7 d p.i.

T2 sequence (P16791 whole entry): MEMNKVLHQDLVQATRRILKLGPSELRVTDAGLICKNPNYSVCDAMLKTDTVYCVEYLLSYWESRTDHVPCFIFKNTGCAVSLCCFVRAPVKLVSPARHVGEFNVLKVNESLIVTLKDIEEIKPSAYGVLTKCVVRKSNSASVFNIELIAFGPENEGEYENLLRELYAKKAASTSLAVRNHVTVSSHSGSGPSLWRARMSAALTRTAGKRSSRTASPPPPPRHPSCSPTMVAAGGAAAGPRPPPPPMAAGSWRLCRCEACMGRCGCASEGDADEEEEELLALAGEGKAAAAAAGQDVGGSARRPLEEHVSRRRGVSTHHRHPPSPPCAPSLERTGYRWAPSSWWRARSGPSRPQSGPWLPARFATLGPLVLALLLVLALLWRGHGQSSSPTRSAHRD

Take `C=CC(=O)N1CCC[C@@H](n2nc(-c3ccc(Oc4ccccc4)cc3)c3c(N)ncnc32)C1` [ibrutinib]: the “effect on pUL97–cyclin H NanoBiT interaction (in words)” value in experiment [1] is “inactive”. Moreover, the “inhibitory effect on NanoBiT interaction signal (in words)” value in experiment [2] is “most prominent, dose-dependent reduction in the measured interaction signal”. In the experiment with HCMV AD169-GFP, the midpoint of the response, the EC50, lay at 16 ± 6 µM.

For orientation: EC50 means the concentration giving half of the maximal effect. High values mean lower potency in that assay, low ones higher potency in that assay.

Source of the values: PMC10137179, “Assessment of Covalently Binding Warhead Compounds in the Validation of the Cytomegalovirus Nuclear Egress Complex as an Antiviral Target” (Cells, 2023).
